Measurements reported in US9012397B2 (priority 2011, dated 2015).
Like-named read-outs stand apart in the source and are kept apart here.

Assays:
Format in all cases: in vivo, human
skin infection = conditions: person two, wrist infection, allergic reaction to watch band; 50 μg/gr cream several times a day
Procedure: (§1) The method of the invention has been carried out with respect to a number of skin disorders. The patients were treated with one of two peptides, each at a concentration of 50 μg/gr cream (unless otherwise indicated):
(§2) The cream was manufactured by Amiga LTD, Israel, and contains the following components:
1. person two suffered from an infection on the wrist of the left hand, apparently an allergic reaction to a watch band. Large spots appeared around the wrist accompanied by redness.
2. person three suffered from an infection on the wrist of the left hand, apparently an allergic reaction to a watch band. Large spots appeared around the wrist accompanied by redness and itching.
3. 2 cases of infected skin wounds.

burns = tested on: burns
Procedure: as §1, §2
1. A person was lightly burned on the back of the hand which touched a very hot object. ZEP4 was immediately applied to the burn site. • Results: the burn mark disappeared within 1 hour. No additional treatments were necessary.
2. A person was severely burned by boiling water on the palm of the hand. […] At the end of 2 weeks there was no sign of the burn, nor thereafter.
3. person two was lightly burned on their finger from boiling oil. […] No further treatments were necessary.
5. A person was burnt on their hand from an oven. […] The burn took on a light brown color.
6. 4 light burn cases, three from touching a hot surface and one from a chemical substance in a laboratory, were treated with ZEP3.
8. person three with irritated skin on the hand due to the rubbing of a watch band. The irritated skin came into contact with a chemical substance (used as a disinfectant). A severe redness developed similar to a burn, and a strong itching feeing. […] D. Oral Cavity

bee stings = tested on: bee stings
Procedure: as §1, §2
3. A person was stung by a bee.
4. person four was stung by bees on both hands.
5. person three was stung by bees on both hands.

mosquito bites = conditions: two males and four females, 30-57 years old; (500 μg/gr cream) as needed
Procedure: as §1, §2
8. males and four females suffered from mosquito bites. […]
9. 3 subjects suffering from mosquito bites were treated with ZEP3.

radiation burns = tested on: radiation burns
Procedure: as §1, §2
4. A person with breast cancer received radiation treatment. The person suffered from radiation burns in a large skin area with blisters and open wounds. ZEP4 was applied directly to the wounds over a period of 12 days, 1-2 times per day. • Results: an immediate (˜1 minute) ease in the itching and burning sensation.
7. person two with breast cancer after mastectomy received radiation treatment. The person suffered from severe radiation burns.

itching = conditions: person
Procedure: as §1, §2
1. A person suffered from a strong itching sensation on the skin all over the body for no apparent reason.
2. A person suffered from a red rash and itching sensation on their breast. ZEP4 (500 μg/gr cream) was applied twice in a period of 2 hours. • Results: relief from itching within 10 minutes.
3. A person suffered from a strong itching sensation in the lower limbs which sometimes spread to the abdomen and back. […] I. Skin Infection

flea bites = tested on: flea bites
Procedure: as §1, §2
1. person two was bitten by fleas on various occasions, resulting in an itching sensation. […] The ointment was reapplied after 6 hours.
2. person one who is very sensitive to flea bites was bitten by fleas, resulting in an itching sensation. […] The ointment should be reapplied after 12 hours.

psoriasis = conditions: person
Procedure: as §1, §2
1. A person suffered from intermittent psoriasis on their head over many years. […] The patient believes that the frequency of the outbreaks has been reduced.
2. A person suffered from psoriasis on the hands. […] The patient believes that a 20% improvement has occurred over 2 weeks.
3. A person suffered from psoriasis in the anus.
4. A person suffered from extensive psoriasis at various locations. ZEP3 (500 μg/gr cream) was applied to the sores as needed. • Results: the itching ceased within 12 hours.
5. A person suffered from chronic psoriasis on the elbow.
6. A person suffered from severe psoriasis at various locations. They regularly went for treatments to the Dead Sea in Israel.

Herpes simplex = tested on: Herpes simplex
Procedure: as §1, §2
5. A person suffered for many years from Herpes simplex on the neck, with no relief from commercial remedies. ZEP3 was applied topically once a day to the lesions. • Results: relief in itching and skin rash within 10-20 min.
6. person two was diagnosed with Herpes simplex.
7. person one was diagnosed with Herpes simplex.
8. person four suffered from Herpes simplex from childhood.
9. A person suffered from Herpes simplex lesions on the lips and face. […] 1-2 applications cause the lesions to disappear.
10. A person suffered from Herpes simplex on the lips, mainly when under pressure. […] The blisters disappeared after 24 hours.
11. A person suffered from Herpes simplex on the lips. ZEP3 (500 μg/gr cream) was topically applied several times during the day on the wound. • Results: the person felt relief after several minutes. The itching and redness lessened immediately and the wound disappeared after 36 hours.
12. 7 subjects suffering from Herpes simplex were treated with ZEP3.
13. A person suffered from Herpes simplex lesions on the lips.
14. A person has a festering Herpes simplex lesion. Generally, 10 days are required for recuperation.
15. A person suffered intermittingly from Herpes simplex on the lips, with blisters.

rash = tested on: rash
Procedure: as §1, §2
1. A rash appeared on the wrist of person two, apparently as an allergic response to a watch band. Large red spots appeared around the wrist.
2. A rash appeared in the underarm area of a person, apparently due to sweat and rubbing of the bra strap. […] F. Psoriasis

Herpes zoster = conditions: person, lesions with skin edema on mid back; 50 μg/gr cream, applied 4-5 times
Procedure: as §1, §2
1. A person was diagnosed with Herpes zoster (shingles), which appeared as a painful, circumferential rash in the abdominal area. The patient had been on antibiotics, with no improvement.
2. A person was diagnosed with Herpes zoster, which appeared as painful lesions with skin edema on the mid back area, appearing several times a year. […] Decrease in the skin rash and the degree of the sore and swelling and a shortening of the time of recovery (healing).

[1] = person, severe boiling water burn on palm, 50 μg/gr cream immediately and every day for 2 weeks
[2] = person, breast cancer radiation burns with blisters and open wounds, 50 μg/gr cream 1-2 times per day for 12 days
[3] = red rash and itching on breast, 500 μg/gr cream twice in 2 hours
[4] = person one, 50 μg/gr cream several times
[5] = person two, 50 μg/gr cream several times
[6] = person, lips, 50 μg/gr cream several times a day at onset of pricking sensation

In the case of pGLU-ASN-TRP-THR [ZEP4], the clinical outcome (skin infection) is reported as “a decrease in redness and the size of the spots”, the clinical outcome (burns; person three, irritated skin on hand contacted a disinfectant, burn-like redness and itching, ZEP4 and ZEP3 each 500 μg/gr cream) is reported as “immediate relief from the redness and itching” and the clinical outcome (burns; person two, light burn on finger from boiling oil, 50 μg/gr cream applied immediately) is reported as “the swelling went down until it completely disappeared”. For the same substance, the clinical outcome (burns; person, hand burnt from an oven, 50 μg/gr cream applied immediately) was “the pain and redness immediately subsided”, the “time until burn mark disappeared” value (burns; person, light burn on back of hand from hot object, 50 μg/gr cream applied immediately) was no more than 1 h and the clinical outcome (burns; [1]) was “blisters began to appear and then shortly disappeared”. The “time until no sign of the burn” value (burns; [1]) was 2 weeks, the clinical outcome (bee stings; person four, both hands stung, 1000 μg/gr cream once to one hand, about 10 minutes after sting) was “the swelling shrunk and the redness decreased to an identical degree on each hand” and the clinical outcome (bee stings; person three, both hands stung, 1000 μg/gr cream once to one hand, about 10 minutes after sting) was “the swelling shrunk and the redness decreased to an identical degree on each hand”. For the same substance, the clinical outcome (bee stings; person, 50 μg/gr cream, one application 24 hours after the sting) was “immediate reduction in the redness, swelling and pain”, the clinical outcome (mosquito bites) was “an immediate relief from the itching sensation was felt” and the clinical outcome (radiation burns; person two after mastectomy, severe radiation burns, 500 μg/gr cream several times per day) was “felt immediate relief”. The clinical outcome (radiation burns; [2]) was “The therapeutic effect repeated itself after each treatment”, the “time to ease in the itching and burning sensation” value (radiation burns; [2]) was roughly 1 min and the clinical outcome (itching; [3]) was “The rash disappeared after several hours”. The “time to relief from itching” value (itching; [3]) was no more than 10 min, the clinical outcome (itching; strong itching in lower limbs, 500 μg/gr cream as needed) was “immediate relief” and the clinical outcome (flea bites; person one very sensitive to flea bites, 50 μg/gr cream) was “almost immediate cessation of the itching sensation”. For the same substance, the clinical outcome (flea bites; person two, 50 μg/gr cream several times to bite location) was “immediate cessation of the itching sensation”, the “time until relief is felt” value (psoriasis; psoriasis in the anus, (500 μg/gr cream) once a day) was 4 days and the clinical outcome (psoriasis; psoriasis in the anus, (500 μg/gr cream) once a day, stopped several days, repeated for 4 days) was “the psoriasis disappeared”. For the same substance, the clinical outcome (psoriasis; psoriasis on hands, 500 μg/gr cream once a day) was “feels relief; the skin is pleasant feeling and not itchy”, the “improvement as believed by the patient” value (psoriasis; psoriasis on hands, 500 μg/gr cream once a day, over 2 weeks) was 20% and the clinical outcome (psoriasis; severe psoriasis at various locations, 500 μg/gr cream) was “the itching ceased and the normal skin appearance returned”. For the same substance, the “clinical outcome as compared to treatment with Zovirax®” value (Herpes simplex; person four, 50 μg/gr cream several times) was “Rapid drying of the lesion, shrinking of swelling and swift conclusion of the outbreak”, the clinical outcome (Herpes simplex; [4]) was “rapid drying of the lesion, as well as shortened scab formation” and the “time to reduction in the stinging/itching feeling” value (Herpes simplex; [4]) was 10 to 20 min. The clinical outcome (Herpes simplex; [5]) was “the development of the lesion was stopped, scab formation began and the stinging/itching feeling disappeared”, the “scab formation as compared to treatment with Zovirax®” value (Herpes simplex; [5]) was “shortened” and the clinical outcome (Herpes simplex; [6]) was “immediate reduction in the pricking sensation”. For the same substance, the “time until blisters disappeared” value (Herpes simplex; [6]) was 24 h, the clinical outcome (Herpes simplex; person, lips, 200 μg/gr cream at onset of pricking sensation or lesions) was “immediate relief; the disease did not develop further” and the clinical outcome (rash; person two, wrist rash, allergic response to watch band, 50 μg/gr cream several times a day) was “a reduction in the redness and in the diameter of the spots”. The clinical outcome (rash; person, underarm rash, 50 μg/gr cream twice a day for three days) was “the redness began to decrease shortly after treatment, and after a few days completely disappeared” and the clinical outcome (Herpes zoster) was “reduced skin edema and an increase in the intervals between attacks. Decrease in the skin rash and the degree of the sore and swelling and a shortening of the time of recovery (healing)”.
